In general, IC50 refers to the concentration at which inhibition is half-maximal. Lower therefore signals inhibition by little substance. In general, melting point refers to the temperature of the solid-liquid transition. Broadly, the inhibition is the share of the control response that was lost under treatment. High values mean a response far below the control, low ones a response near the control.

Here are results for six compounds from US6555714B1, “Inhibitors of hydroxyphenylpyruvate dioxygenase and an assay for identification of inhibitors” (Hoechst Aktiengesellschaft, priority 1993, dated 2003).

The target in series [1] is anabolic plant HPPD (p-hydroxyphenylpyruvate dioxygenase) from maize (Zea mays, UniProt A0A1D6H1G0). It counts as biochemical. The note with it: for IC50: Table 1 of compounds of formula (I), HPPD inhibition, IC50 is a molar concentration. Here is the method:
A modified form of the method for measuring catabolic HPPDs from human liver has been described by Lindblad (Lindblad, B. (1971) Clin. Chim. Acta 34, 113-121). End-point measurements are used in this case for detecting ^14C—CO2, which is liberated from ^14C-p-hydroxyphenylpyruvate by the enzymatic activity of HPPD.
To enrich the anabolic HPPD from plant tissues, young etiolated maize plants were homogenized in extraction buffer (20 mM phosphate buffer pH 7.0; 0.14 M KCl; 0.1 mg/ml glutathione and 1% insoluble polyvinylpyrrolidone) for 3×10 seconds, for example in a Waring blender. The extract was filtered (all other isolation steps were carried out at 4° C.) and centrifuged (20 minutes; 10,000 g). The supernatant was subjected to fractional ammonium sulfate precipitation. […] At this stage, it was possible to store the enzyme at −80° C. following dialysis in a suitable buffer, such as, for example, 20 mM phosphate buffer pH 7.0; 0.14 M KCl; 0.1 mg/ml glutathione.
The enzyme assays were performed in 20 ml polyethylene screw-top containers. Two hypodermic needles (0.9×40 mm) were pushed through the screw-top cap. One of the hypodermic needles was bent to form a hook onto which a small filter paper disk of diameter 10 mm was placed. The filter paper was moistened with 25 μl of methylbenzethonium hydroxide (Sigma). The second hypodermic needle was used for injecting start and stop solution into the screw-top container.
The enzyme reaction mix contained:
1 ml of 0.1 M phosphate buffer, pH 7.3;
2 g/l of bovine liver catalase;
100 μl of a mixture of 3 mM dichlorophenol-indophenol and
150 mM glutathione (reduced);
25 μl of acetone (or potential inhibitors dissolved in acetone) and
enzyme in a total volume of 1,635 μl.
After preincubation for 5 minutes at 30° C., the reaction was started by injecting 800 μl of ^14C-p-hydroxyphenylpyruvate. The reaction was stopped by injecting 600 μl of 1 N H2SO4, incubation was continued for 15 minutes, and the radioactivity which was liberated was determined on the small filter paper disks in a liquid scintillation counter.
(§1) FEBS-Letters, 1993, 318 (2), 162-166.

Series [2] deals with Lemna gibba. Nature of the series: Growth inhibition of Lemna. It counts as in vivo. The conditions noted are these: for inhibition at 100 µM: 10^−4 M; for inhibition at 10 µM: 10^−5 M; for inhibition at 1 µM: 10^−6 M.
From the text: as §1

The subject of series [3] is plastoquinone biosynthesis in wheat. In words: Incorporation of radioactivity from 14C-tyrosine into plastoquinone in wheat (thin-layer chromatography). The class given is in vivo. The note with it: wheat plants sprayed with 100 g/ha in screening formulation, FIG. 1. Here is the method: Thin-layer chromatography analysis of the incorporation of radioactivity from ^14C-tyrosine into plastoquinone. […] The lipophilic metabolites of the wheat were extracted using chloroform, separated on silica gel 60 HPTLC plates using chloroform: diethyl ether (99:1), and the radioactivity was analyzed by thin-layer scanner.

In series [4] the test system is Lemna gibba. Nature of the series: Neutralization of the effect of SC-0051 by homogentisic acid, number of Lemna gibba plants. The note with it: day six. It counts as in vivo. On the procedure:
HPPD catalyzes the transformation of p-hydroxyphenylpyruvate to homogentisic acid. If HPPD inhibition is responsible for the herbicidal activity of an inhibitor, then it should be possible to neutralize the herbicidal effect by supplementation with homogentisic acid. […] The plant was grown in a sterile aqueous medium supplemented as described in Table 1.
Batches of three Lemna plants in 100 ml of sterile medium were incubated for six days with sterile-filtered supplements. […] The number of newly formed plants was determined on day six.

Several values for one entry are separate records, joined by “and”; a condition that tells them apart may be missing. Equal entries are not always repeated.

anabolic plant HPPD (p-hydroxyphenylpyruvate dioxygenase) from maize, sequence (A0A1D6H1G0 entry or part of it): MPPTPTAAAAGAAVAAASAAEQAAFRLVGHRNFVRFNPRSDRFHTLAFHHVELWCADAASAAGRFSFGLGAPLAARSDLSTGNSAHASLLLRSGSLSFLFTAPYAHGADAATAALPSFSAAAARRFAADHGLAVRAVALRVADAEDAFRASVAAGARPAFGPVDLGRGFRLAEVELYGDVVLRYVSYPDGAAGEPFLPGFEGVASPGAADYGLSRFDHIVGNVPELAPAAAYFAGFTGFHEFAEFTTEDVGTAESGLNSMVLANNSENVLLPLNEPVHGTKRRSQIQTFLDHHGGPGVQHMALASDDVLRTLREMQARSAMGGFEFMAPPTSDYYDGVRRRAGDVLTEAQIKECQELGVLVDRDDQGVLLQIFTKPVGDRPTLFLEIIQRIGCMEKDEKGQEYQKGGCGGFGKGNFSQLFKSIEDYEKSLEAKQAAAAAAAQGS

“2-(2,4-Dichlorobenzoyl)-1,4-quinone [Example No. 91]” yielded an IC50 in series [1] of 18 nM.
`Cc1cc(Cl)cc(C(=O)c2ccc(S(C)(=O)=O)cc2Cl)c1O` [Example No. 100, 2,5′-Dichloro-2′-hydroxy-3′-methyl-4-methylsulfonylbenzophenone] yielded a melting point of 175 to 180 °C. The same compound yielded an IC50 in series [1] of 6.2 nM. In series [2], the inhibition at 100 µM came to 98%, at 10 µM the inhibition was 96% and the inhibition at 1 µM is 92%.
As for `CS(=O)(=O)c1ccc(C(=O)c2c(O)cc(Cl)cc2Cl)c(Cl)c1` [Example No. 183, 2,2′,4′-Trichloro-6′-hydroxy-4-methylsulfonylbenzophenone], the melting point was 123 to 126 °C and 123 to 125 °C. Moreover, in series [1], it took 4.8 nM to reach half-maximal inhibition (IC50). Also, in series [2], the inhibition at 100 µM came out at 98%, at 10 µM the inhibition was 82% and the inhibition at 1 µM was 81%.
Regarding `CS(=O)(=O)c1ccc(C(=O)C2C(=O)CCCC2=O)c(Cl)c1` [SC-0051, 2-(2-chloro-4-methanesulfonylbenzoyl)-1,3-cyclohexanedione], the “Plastoquinone biosynthesis (incorporation of radioactivity from tyrosine into plastoquinone)” value in series [3] was “inhibited”. Besides, the “Number of L. gibba plants” value is 32 in series [4] (10^−7 M SC-0051, medium supplemented with 1 mM HGA); 2 in series [4] (10^−7 M SC-0051, medium supplemented with 1 mM HPPD); 3 in series [4] (10^−7 M SC-0051, no supplementation of the medium, start three plants).
Turning to `CC1(C)CON(Cc2ccccc2Cl)C1=O` [clomazone, reference compound], in series [1] (partially purified maize HPPD, FIG. 2), the “Inhibition of HPPD (in words)” value is given as “no inhibitory action”.
The compound `CS(=O)(=O)c1ccc(C(=O)c2cc(C(=O)O)ccc2O)c(Cl)c1` [compound 88] returned a melting point of 254 to 256 °C. For the same compound, the IC50 in series [1] was found to be 70 nM.
